Data reported in patent publication US10590140B2, “Tetrahydropyrimidodiazepine and dihydropyridodiazepine compounds for treating pain and pain related conditions” (ESTEVE PHARMACEUTICALS, S.A., priority 2016, dated 2020).
Like-named read-outs stand apart in the source and are kept apart here.

Legend:
[1] = target: human norepinephrine transporter (NET) (Homo sapiens (Human), UniProt P23975); assay: Binding assay to human norepinephrine transporter (NET) ([3H]-Nisoxetin); conditions: Table 2, dual compounds; [3H]-Nisoxetin binding
Outline: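 NET-enriched membranes (5 μg) incubated with 5 nM [3H]-nisoxetin in 50 mM Tris-HCl, 120 mM NaCl, 5 mM KCl, pH 7.4, 60 min at 4 °C. Bound ligand separated by filtration on PEI-soaked GF/C and counted by scintillation; nonspecific binding defined with 1 μM competitor.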

[2] = target: human α2δ-1 subunit of Cav2.2 calcium channel (Homo sapiens (Human), UniProt P54289); assay: Binding assay to human α2δ-1 subunit of Cav2.2 calcium channel ([3H]-Gabapentin); conditions: read-out: Ki (nM) α2δ-1
Outline: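 Radioactivity on dried GF/C filters quantified by scintillation after filtration and three cold Tris-HCl (pH 7.4) washes. Incubation ran 60 min at 27° C with [3H]-gabapentin; 10 μM pregabalin gave nonspecific binding.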

[3] = Table 2, dual compounds, [3H]-Gabapentin binding
[4] = binding to α2δ-1, [3H]-Gabapentin

Chain of human α2δ-1 subunit of Cav2.2 calcium channel (P54289 25-1103): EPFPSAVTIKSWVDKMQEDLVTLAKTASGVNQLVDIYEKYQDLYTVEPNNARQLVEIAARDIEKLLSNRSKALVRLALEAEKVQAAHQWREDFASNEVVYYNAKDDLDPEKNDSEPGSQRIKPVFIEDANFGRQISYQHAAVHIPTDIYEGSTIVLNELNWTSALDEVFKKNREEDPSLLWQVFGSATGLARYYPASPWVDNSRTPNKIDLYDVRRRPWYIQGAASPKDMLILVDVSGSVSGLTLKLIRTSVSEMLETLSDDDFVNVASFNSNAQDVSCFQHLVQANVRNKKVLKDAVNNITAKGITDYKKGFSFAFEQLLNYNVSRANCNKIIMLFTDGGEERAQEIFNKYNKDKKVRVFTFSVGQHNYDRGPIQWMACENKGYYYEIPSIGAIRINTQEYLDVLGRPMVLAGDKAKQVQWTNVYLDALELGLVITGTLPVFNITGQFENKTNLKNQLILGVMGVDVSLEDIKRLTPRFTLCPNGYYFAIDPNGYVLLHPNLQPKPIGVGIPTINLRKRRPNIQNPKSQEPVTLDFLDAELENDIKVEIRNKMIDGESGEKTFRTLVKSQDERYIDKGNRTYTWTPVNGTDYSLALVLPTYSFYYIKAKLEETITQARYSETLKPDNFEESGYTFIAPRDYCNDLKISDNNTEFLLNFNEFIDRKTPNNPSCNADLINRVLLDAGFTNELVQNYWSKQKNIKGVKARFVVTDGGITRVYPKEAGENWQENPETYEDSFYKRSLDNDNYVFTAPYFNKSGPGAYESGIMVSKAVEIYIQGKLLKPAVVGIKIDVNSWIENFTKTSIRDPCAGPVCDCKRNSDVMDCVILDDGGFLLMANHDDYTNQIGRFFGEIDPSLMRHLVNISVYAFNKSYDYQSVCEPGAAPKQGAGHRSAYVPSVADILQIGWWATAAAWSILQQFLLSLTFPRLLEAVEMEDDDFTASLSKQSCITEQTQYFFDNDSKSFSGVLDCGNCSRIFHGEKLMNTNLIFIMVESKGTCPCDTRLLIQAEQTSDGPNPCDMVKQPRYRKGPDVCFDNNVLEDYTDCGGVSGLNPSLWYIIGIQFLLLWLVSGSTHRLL
Chain of human norepinephrine transporter (NET) (P23975 whole entry): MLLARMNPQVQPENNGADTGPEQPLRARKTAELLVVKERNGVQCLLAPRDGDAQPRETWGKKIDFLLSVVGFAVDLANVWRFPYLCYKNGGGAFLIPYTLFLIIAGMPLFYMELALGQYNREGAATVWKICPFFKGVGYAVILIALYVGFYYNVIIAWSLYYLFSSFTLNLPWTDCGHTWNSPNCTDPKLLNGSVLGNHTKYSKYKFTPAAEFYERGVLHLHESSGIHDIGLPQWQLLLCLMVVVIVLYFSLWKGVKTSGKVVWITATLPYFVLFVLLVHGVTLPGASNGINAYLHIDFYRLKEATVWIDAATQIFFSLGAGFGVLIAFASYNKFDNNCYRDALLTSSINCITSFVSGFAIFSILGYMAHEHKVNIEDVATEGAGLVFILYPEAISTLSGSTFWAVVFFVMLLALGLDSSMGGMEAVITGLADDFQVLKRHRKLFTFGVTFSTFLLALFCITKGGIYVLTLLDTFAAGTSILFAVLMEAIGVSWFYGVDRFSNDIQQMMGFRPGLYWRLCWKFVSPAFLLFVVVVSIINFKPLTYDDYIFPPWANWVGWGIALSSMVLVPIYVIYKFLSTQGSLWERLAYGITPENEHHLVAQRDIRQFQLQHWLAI

Ki [1] [nM]	Ki [2, 3] [nM]	Ki [2, 4] [nM]	Compound
100 to 500	500 to 3000	500 to 3000	CNCCC(OCc1cccc(N2CCN(C)c3nc(N(C)Cc4ccccn4)ncc3C2=O)c1)c1ccccc1 (stereo not drawn) [Example 336, 9-methyl-2-(methyl(pyridin-2-ylmethyl)amino)-6-(3-((3-(methylamino)-1-phenylpropoxy)methyl)phenyl)-6,7,8,9-tetrahydro-5H-pyrimido[4,5-e][1,4]diazepin-5-one]
< 100	> 3000	> 3000	CNCC(OCc1ccc(N2CCN(C)c3nc(C)ncc3C2=O)cc1)c1ccccc1 (stereo not drawn) [Example 355, 2,9-dimethyl-6-(4-((2-(methylamino)-1-phenylethoxy)methyl)phenyl)-6,7,8,9-tetrahydro-5H-pyrimido[4,5-e][1,4]diazepin-5-one]
500 to 1000	500 to 3000	500 to 3000	CNCC[C@@H](OCc1cccc(N2CCN(C)c3nc(N(C)C)ncc3C2=O)c1)c1ccccc1 [Example 196, (R)-2-(dimethylamino)-9-methyl-6-(3-((3-(methylamino)-1-phenylpropoxy)methyl)phenyl)-6,7,8,9-tetrahydro-5H-pyrimido[4,5-e][1,4]diazepin-5-one]
500 to 1000	> 3000	> 3000	CNCCC(OCc1ccc(CN2CCN(C)c3nc(C)ncc3C2=O)cc1)c1ccccc1 (stereo not drawn) [Example 422, 2,9-dimethyl-6-(4-((3-(methylamino)-1-phenylpropoxy)methyl)benzyl)-6,7,8,9-tetrahydro-5H-pyrimido[4,5-e][1,4]diazepin-5-one]
